Data taken from patent publication US20220396565A1 (Hoffmann-La Roche Inc., priority 2020, published 2022).
Structures can show the parent of a compound that is named as a salt.

The compounds below were run on Acinetobacter baumannii ATCC17961 (assay: Antimicrobial susceptibility testing: 90% growth inhibitory concentration (IC90) determination, Iso-Sensitest broth). Conditions: Acinetobacter baumannii, ATCC17961, 90% growth inhibitory concentration, Acinetobacter baumannii ATCC17961, Iso-Sensitest broth; read-out: ATCC 17961 IC90.
Assay type: cell-based
Summary of the method: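 Twofold serial dilutions (e.g. 10 to 0.02 μM final) were tested in Iso-Sensitest broth against ~5×10^(5) CFU/ml at 35±2 °C. OD600 was read every 20 min over 16 h. IC90 was derived from growth inhibition during the logarithmic phase.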

Row | IC90 | SMILES
1 | 0.04 µM | COc1ccc(-c2cnc(C(=O)Nc3ccc(C(=O)N4CCN(C(=O)CC5CNC5)CC4)c(Cl)c3)n2C)c(F)c1F [Example 145, N-[4-[4-[2-(azetidin-3-yl)acetyl]piperazine-1-carbonyl]-3-chloro-phenyl]-5-(2,3-difluoro-4-methoxy-phenyl)-1-methyl-imidazole-2-carboxamide formate]
2 | 0.09 µM | CN(C)CC(=O)N1CCN(C(=O)c2ccc(NC(=O)c3ncc(-c4ccc(OCF)cc4F)n3C)cc2Cl)CC1 [Example 222, N-(3-chloro-4-(4-(dimethylglycyl)piperazine-1-carbonyl)phenyl)-5-(2-fluoro-4-(fluoromethoxy)phenyl)-1-methyl-1H-imidazole-2-carboxamide]
3 | 0.03 µM | Cn1c(-c2ccc(OC(F)F)c(F)c2F)cnc1C(=O)Nc1ccc(C(=O)N2CCN(C(=O)C3CCNCC3)CC2)c(Cl)c1 [Example 249, N-[3-chloro-4-[4-(piperidine-4-carbonyl)piperazine-1-carbonyl]phenyl]-5-[4-(difluoromethoxy)-2,3-difluoro-phenyl]-1-methyl-imidazole-2-carboxamide formate]
4 | 0.06 µM | CCOc1ccc(-c2cnc(C(=O)Nc3ccc(C(=O)N4CCN(C(=O)C5(O)CCNCC5)CC4)c(Cl)c3)n2C)c(F)c1F [Example 170, N-[3-chloro-4-[4-(4-hydroxypiperidine-4-carbonyl)piperazine-1-carbonyl]phenyl]-5-(4-ethoxy-2,3-difluoro-phenyl)-1-methyl-imidazole-2-carboxamide formate]
5 | 0.64 µM | CN(C)CCN1CCN(C(=O)c2ccc(NC(=O)c3ncc(-c4ccc(Oc5ccccn5)c(F)c4F)n3C)cc2Cl)CC1 [Example 271, N-[3-chloro-4-[4-[2-(dimethylamino)ethyl]piperazine-1-carbonyl]phenyl]-5-[2,3-difluoro-4-(2-pyridyloxy)phenyl]-1-methyl-imidazole-2-carboxamide trifluoroacetate]
6 | 0.04 µM | Cn1c(-c2ccc(OCF)c(F)c2F)cnc1C(=O)Nc1ccc(C(=O)N2CCN(C(=O)CC3(O)CNC3)CC2)c(Cl)c1 [Example 160, N-[3-chloro-4-[4-[2-(3-hydroxyazetidin-3-yl)acetyl]piperazine-1-carbonyl]phenyl]-5-[2,3-difluoro-4-(fluoromethoxy)phenyl]-1-methyl-imidazole-2-carboxamide formate]
7 | 0.06 µM | Cn1c(-c2ccc(OCF)c(F)c2Cl)cnc1C(=O)Nc1ccc(C(=O)N2CCC(C(=O)NC[C@@H]3CCNC3)CC2)c(Cl)c1 [Example 62, 1-[2-chloro-4-[[5-[2-chloro-3-fluoro-4-(fluoromethoxy)phenyl]-1-methyl-imidazole-2-carbonyl]amino]benzoyl]-N-[[(3R)-pyrrolidin-3-yl]methyl]piperidine-4-carboxamide formate]
8 | 0.03 µM | COc1ccc(-c2cnc(C(=O)Nc3ccc(C(=O)N4CCN(C(=O)CC5(O)CCNCC5)CC4)c(Cl)c3)n2C)c(F)c1F [Example 161, N-[3-chloro-4-[4-[2-(4-hydroxy-4-piperidyl)acetyl]piperazine-1-carbonyl]phenyl]-5-(2,3-difluoro-4-methoxy-phenyl)-1-methyl-imidazole-2-carboxamide formate]
9 | 0.13 µM | Cn1c(-c2ccc(OC(F)F)c(F)c2)cnc1C(=O)Nc1ccc(C(=O)N2CCN(C(=O)C[C@@H]3CCCN3)CC2)c(Cl)c1 [Example 181, N-[3-chloro-4-[4-[2-[(2S)-pyrrolidin-2-yl]acetyl]piperazine-1-carbonyl]phenyl]-5-[4-(difluoromethoxy)-3-fluoro-phenyl]-1-methyl-imidazole-2-carboxamide formate]
10 | 0.06 µM | Cn1c(-c2ccc(OCC#N)c(F)c2F)cnc1C(=O)Nc1ccc(C(=O)N2CCN(CCN)CC2)c(Cl)c1 [Example 19, N-[4-[4-(2-aminoethyl)piperazine-1-carbonyl]-3-chloro-phenyl]-5-[4-(cyanomethoxy)-2,3-difluoro-phenyl]-1-methyl-imidazole-2-carboxamide trifluoroacetate]

Continued, compound first:

Row | SMILES | IC90
11 | COc1ccc(-c2cnc(C(=O)Nc3ccc(C(=O)N4CCC(C(=O)NC5CNC5)CC4)c(Cl)c3)n2C)c(F)c1F [Example 250, N-(azetidin-3-yl)-1-[2-chloro-4-[[5-(2,3-difluoro-4-methoxy-phenyl)-1-methyl-imidazole-2-carbonyl]amino]benzoyl] piperidine-4-carboxamide trifluoroacetate] | 0.08 µM
12 | CCc1cc(NC(=O)c2ncc(-c3ccc(OC)c(F)c3F)n2C)ccc1C(=O)N1CCC(C(=O)NCCN)CC1 [Example 100, N-(2-aminoethyl)-1-[4-[[5-(2,3-difluoro-4-methoxy-phenyl)-1-methyl-imidazole-2-carbonyl]amino]-2-ethyl-benzoyl]piperidine-4-carboxamide] | 0.34 µM
13 | COc1ccc(-c2cnc(C(=O)Nc3ccc(C(=O)N4CC(OCCN)C4)c(Cl)c3)n2C)c(F)c1F [Example 18, N-[4-[3-(2-aminoethoxy)azetidine-1-carbonyl]-3-chloro-phenyl]-5-(2,3-difluoro-4-methoxy-phenyl)-1-methyl-imidazole-2-carboxamide formate] | 0.07 µM
14 | Cn1c(-c2ccc(OC(F)F)c(F)c2F)cnc1C(=O)Nc1ccc(C(=O)N2CCC(C(=O)N3CC[C@@H](N)C3)CC2)c(Cl)c1 [Example 45, N-[4-[4-[(3R)-3-aminopyrrolidine-1-carbonyl]piperidine-1-carbonyl]-3-chloro-phenyl]-5-[4-(difluoromethoxy)-2,3-difluoro-phenyl]-1-methyl-imidazole-2-carboxamide trifluoroacetate] | 0.08 µM
15 | COc1ccc(-c2cnc(C(=O)Nc3ccc(C(=O)N4CCC(C(=O)N[C@H]5[C@@H]6CNC[C@@H]65)CC4)c(Cl)c3)n2C)c(F)c1F [Example 59, N-[(1S,5R)-3-azabicyclo[3.1.0]hexan-6-yl]-1-[2-chloro-4-[[5-(2,3-difluoro-4-methoxy-phenyl)-1-methyl-imidazole-2-carbonyl]amino]benzoyl] piperidine-4-carboxamide formate] | 0.05 µM
16 | Cn1c(-c2ccc(OC(F)F)c(F)c2F)cnc1C(=O)Nc1ccc(C(=O)N2CCN(C(=O)C3CCN(CC(N)=O)CC3)CC2)c(Cl)c1 [Example 289] | 0.07 µM
17 | COc1ccc(-c2cnc(C(=O)Nc3ccc(C(=O)N4CC(C(=O)N5CCNCC5)C4)c(Cl)c3)n2C)c(F)c1F [Example 69, N-[3-chloro-4-[3-(piperazine-1-carbonyl)azetidine-1-carbonyl]phenyl]-5-(2,3-difluoro-4-methoxy-phenyl)-1-methyl-imidazole-2-carboxamide formate] | 0.12 µM
18 | COc1ccc(-c2cnc(C(=O)Nc3ccc(C(=O)N4CCC(NS(=O)(=O)C5CCNC5)CC4)c(Cl)c3)n2C)c(F)c1F (stereo not shown) [Example 237, N-[3-chloro-4-[4-(pyrrolidin-3-ylsulfonylamino)piper-idine-1-carbonyl]phenyl]-5-(2,3-difluoro-4-methoxy-phenyl)-1-methyl-imidazole-2-carboxamide] | 0.05 µM
19 | Cn1c(-c2ccc(OC(F)F)c(F)c2F)cnc1C(=O)Nc1ccc(C(=O)N2CCC(C(=O)NC[C@@H]3CCNC3)CC2)c(Cl)c1 [Example 47, 1-[2-chloro-4-[[5-[4-(difluoromethoxy)-2,3-difluoro-phenyl]-1-methyl-imidazole-2-carbonyl]amino]benzoyl]-N-[[(3R)-pyrrolidin-3-yl]methyl]piperidine-4-carboxamide trifluoroacetate] | 0.04 µM
20 | COc1ccc(-c2cnc(C(=O)Nc3ccc(C(=O)N4CC(C(=O)N5C[C@H]6CNC[C@H]6C5)C4)c(Cl)c3)n2C)c(F)c1F [Example 70, N-[4-[3-[(3aR,6aS)-2,3,3a,4,6,6a-hexahydro-1H-pyrrolo[3,4-c]pyrrole-5-carbonyl]azetidine-1-carbonyl]-3-chloro-phenyl]-5-(2,3-difluoro-4-methoxy-phenyl)-1-methyl-imidazole-2-carboxamide formate] | 0.14 µM
21 | COc1ccc(-c2cnc(C(=O)Nc3ccc(C(=O)N4CCC(C(=O)NC5CCNCC5)CC4)c(Cl)c3)n2C)c(F)c1F [Example 38, 1-[2-chloro-4-[[5-(2,3-difluoro-4-methoxy-phenyl)-1-methyl-imidazole-2-carbonyl]amino]benzoyl]-N-(4-piperidyl)piperidine-4-carboxamide formate] | 0.06 µM
22 | COc1ccc(-c2cnc(C(=O)Nc3ccc(C(=O)N4CCC(NC(=O)[C@@H]5CCNC5)C4)c(Cl)c3)n2C)c(F)c1F (stereo partly drawn) [Example 109, N-[3-chloro-4-[3-[[(3R)-pyrrolidine-3-carbonyl]amino]pyrrolidine-1-carbonyl]phenyl]-5-(2,3-difluoro-4-methoxy-phenyl)-1-methyl-imidazole-2-carboxamide formate] | 0.15 µM

Same assay, conditions: Acinetobacter baumannii, ATCC17961, read-out: ATCC 17961 IC90

Row | SMILES | IC90
23 | COc1ccc(-c2cnc(C(=O)Nc3ccc(C(=O)N4CCC(NC(=O)CC5CCNC5)CC4)c(Cl)c3)n2C)c(F)c1F (stereo not shown) [Example 11, N-[3-Chloro-4-[4-[(2-pyrrolidin-3-ylacetyl)amino]piperidine-1-carbonyl]phenyl]-5-(2,3-difluoro-4-methoxy-phenyl)-1-methyl-imidazole-2-carboxamide formate] | 0.07 µM
24 | Cn1c(-c2ccc(OC(F)F)c(F)c2F)cnc1C(=O)Nc1ccc(C(=O)N2CCN(C(=O)CC3(O)CCNCC3)CC2)c(Cl)c1 [Example 223, N-(3-chloro-4-(4-(2-(4-hydroxypiperidin-4-yl)acetyl)piperazine-1-carbonyl)phenyl)-5-(4-(difluoromethoxy)-2,3-difluorophenyl)-1-methyl 1H-imidazole-2-carboxamide formate] | 0.05 µM
25 | COc1ccc(-c2cnc(C(=O)Nc3ccc(C(=O)N4CCN(C(=O)CN5CCCC5)CC4)c(Cl)c3)n2C)c(F)c1F [Example 293, N-[3-Chloro-4-[4-(2-pyrrolidin-1-ylacetyl)piperazine-1-carbonyl]phenyl]-5-(2,3-difluoro-4-methoxy-phenyl)-1-methyl-imidazole-2-carboxamide formate] | 0.03 µM
